Columns and labels:
[1] = tested on: inducing peptide construct; assay: ELISA of serum IgG antibody to the inducing (homologous) peptide construct in immunized rats; format: in vivo, Sprague Dawley rats; details: for IgG antibody levels to GGY: pre-infection sera
Method: (§1) Immunogenicity of Peptides: Sprague Dawley CD strain 43 day-old male rats (Charles River Laboratories) were used for injection. Six groups of 4-5 rats were injected subcutaneously in the vicinity of the salivary glands with 50 μg each of GGY, AND, SAND or CAT peptide constructs, 10 μg of GTF, or sham-immunized with buffer alone. The initial injection included complete Freund adjuvant (CFA; Difco); two subsequent injections at 21-day intervals included incomplete Freund adjuvant. Animals were bled prior to injection and 14-21 days after each injection. Serum from coagulated and centrifuged blood was stored frozen at −20° C. until use.
(§2) ELISA: Serum IgG and salivary IgA antibodies were tested by enzyme-linked immunosorbent assay (ELISA). Polystyrene microtiter plates (Flow Laboratories) were coated with […] of each peptide construct or 0.5 μg of S. sobrinus GTF. Antibody activity was then measured by incubation with 1:100 to 1:10^6 dilutions of sera, or 1:4 to 1:32 dilutions of saliva. Plates were then developed for IgG antibody rabbit anti-rat IgG followed in sequence by alkaline phosphatase goat anti-rabbit IgG (Biosource Inc.) and p-nitrophenylphosphate (Sigma). A mouse monoclonal reagent to rat α chain (Zymed, South San Francisco, Calif.) was used with biotinylated goat anti-mouse IgG (TAGO, Inc., Burlingame, Calif.) and avidin-alkaline phosphatase (Cappel) to reveal levels of salivary IgA antibody to peptides. Reactivity was recorded as absorbance (A405 nm) in a micro plate reader (Biotek Instruments). Data are reported as absorbance (A405 nm), reciprocal titer, or as ELISA units (EU) which were calculated relative to the levels of appropriate reference sera or salivas from Sprague Dawley rats thrice immunized with the respective peptide construct. Dilutions of 1:12,800 and 1:6,400 (A405 nm approximately 1.0) were considered 100 EU for serum IgG to the GGY and AND constructs, respectively. Dilutions of 1:32 were considered 100 EU for salivary IgA to both GGY and AND constructs.
(§3) Two experiments were performed. Groups (n=11-12) of 23-26 day-old rats were subcutaneously (sc) injected in the salivary gland vicinity with (experiment 1) GGY (50 μg), AND (50 μg) or GTF(10 μg), or phosphate buffered saline (control animals), or (experiment 2) GGY (50 ;μg) or PBS. Each antigen was incorporated with complete Freund adjuvant in both experiments. Eight (experiment 1) or 14 (experiment 2) days later, rats were reinjected with PBS or with the same antigen and dose in incomplete Freund adjuvant. Six (experiment 1) or 12 (experiment 2) days after the second injection, animals were bled from the tail vein, and saliva was collected after injection of pilocarpine (1.0 mg/100 g body weight). Fourteen (experiment 1) or 11 (experiment 2) days after the second injection, all rats were orally infected with approximately 10^8 S. mutans for 3 consecutive days. Both experiments were terminated 63 days after initial infection.
(§4) Two experiments were performed to measure the effect of immunization with the eight-branched GGY and AND peptide constructs on experimental dental caries in the Sprague-Dawley rat. In the first experiment, groups of rats were immunized with GGY or AND peptide constructs. In the second experiment groups of rats were immunized only with the GGY peptide construct. Pre-infection sera and salivas were collected for antibody measurement in 39 day old rats in experiment 1 (6 days after the second injection) and 51 day old rats in experiment 2 (12 days after the second injection). In the GGY-immunized rat groups, IgG antibody levels to GGY (experiment 1=21.9+17.8 EU; experiment 2=108.0±4.0 EU) were elevated above those of the sham-immunized groups (experiment 1=1.7±0.2 EU; experiment 2=4.0±3.0 EU) in both experiments and reached statistical significance (p<0.002) in experiment 2.

[2] = tested on: inducing peptide construct; assay: ELISA of salivary IgA antibody to the inducing (homologous) peptide construct in immunized rats; format: in vivo, Sprague Dawley rats; details: for rats with significant levels of salivary IgA antibody: GGY- and AND-injected rats counted together; for Salivary IgA antibody levels to GGY: pre-infection saliva
Method: as §1, §2, §3, §4

For GGYEFLLANDVDNSNPVVQ, the “responding rats (serum IgG)” value ([1]; immunization began on day 43 of life, bled 21 days later (day 64 of life), immunogenicity experiment) was 4/4, the “immunogenicity (percentage of animals responding and titer of responding sera)” value ([1]; immunogenicity experiment, FIG. 1) was “at least as high as observed for the positive control CAT peptide” and the “effect of subsequent immunization on serum IgG titers” value ([1]; immunogenicity experiment, day 21 (one injection) vs day 63 (three injections)) was “sufficient to induce maximal serum IgG antibody to GGY”. For the same sequence, the “serum IgG antibody to the inciting antigen after the first injection” value ([1]; immunogenicity experiment, rats 43 days old at start, 50 μg sc in CFA, day 21) was “induced serum IgG antibody to the inciting antigen after the first injection in all rats”, the “IgG antibody levels to GGY” value ([1]; protection experiment 1, 39 day old rats, 6 days after the second injection) was 21.9 ± 17.8 EU and the “levels of serum IgG antibody (in words)” value ([1]; protection experiment 1, weanling rats, two injections eight days apart, bled 14 days after onset (day 39 of life)) was “modest levels”. The “IgG antibody levels to GGY” value ([1]; protection experiment 2, 51 day old rats, 12 days after the second injection, p<0.002 vs sham) was 108.0±4.0 EU, the “positively responding rats (serum IgG)” value ([1]; protection experiment 2, weanling rats, two injections 14 days apart, bled 26 days after onset (day 51 of life)) was 8/11 and the “levels of serum IgG antibody (in words)” value ([1]; protection experiment 2, weanling rats, two injections 14 days apart, bled day 51 of life) was “significantly elevated levels of serum IgG antibody”. For the same sequence, the “rats with significant levels of salivary IgA antibody” value ([2]; day 21 (one injection)) was 7/9, the “rats with significant levels of salivary IgA antibody” value ([2]; day 63 (three injections)) was 8/9 and the “Salivary IgA antibody levels to GGY” value ([2]; protection experiment 1, 39 day old rats) was 5.0±2.0 EU. For the same sequence, the “Salivary IgA antibody levels to GGY” value ([2]; protection experiment 2, 51 day old rats) was 11.7±4.8 EU.
